Data from PMC10481538, “Bioanalytical method validation and application to a phase 1, double-blind, randomized pharmacokinetic trial of a standardized Centella asiatica (L.) Urban water extract product in healthy older adults” (Frontiers in Pharmacology, 2023).
Like-named read-outs stand apart in the source and are kept apart here.

Key:
clinical = conditions: both, human, po; for AUC(0-t): AUC(0-12)
Procedure: (§1) To each sample of participant plasma or urine, A. aerogenes sulfatase (2.5 µL; 10–20 units/mL), and E. coli glucuronidase (2.5 µL; ∼5,000–50,000 units/mL) were used to release the analytes from their sulfate and β-D-glucuronic acid esters (Phase II metabolites). For calibration and validation samples, aqueous glycerol (5 µL) was added to mimic the enzymatic hydrolysis. For all analyses, 1% ascorbic acid (10 µL) was added prior to sample work up to limit oxidation. Samples were incubated (37°C) for 20 min and placed on ice to halt enzymatic activity. […] The supernatant was filtered (0.22 µm spinfilter) at 10,000 g for 5 min at 4°C and used for analysis. To optimize peak shape during analysis, the concentration of organic solvent (sample filtrate) was adjusted to a 60:40 ratio with HPLC grade water for TT analysis and a 90:10 ratio with 1% aqueous formic acid for CQA analysis.
(§2) HPLC-MS/MS was performed at the Oregon Health & Science University’s (OHSU) Bioanalytical Shared Resource/Pharmacokinetics Core (Portland, OR, United States). […] Chromatographic separation was achieved using a Poroshell 120 EC18 column (3 mm id × 50 mm; 2.7 µ) and a Poroshell ultra high-performance liquid chromatography (UHPLC) guard column (3.0 mm i.d. Å∼ 5 mm, 2.7 μ) (Agilent, Santa Clara, CA, United States). The injection volume was 20 μL and flow rate was 0.42 mL/min. Gradient elution was performed using a mobile phase of solvent A (water containing 10 mM ammonium acetate and 0.02% ammonium hydroxide; pH 8.5) and solvent B (methanol). […] Chromatographic separation was achieved using a Zorbax Eclipse plus C8 Rapid resolution (4.6 i.d. Å∼ 150 mm, 3.5 μ) column with a Zorbax Eclipse plus C8 Rapid resolution (4.6 i.d. Å∼ 12.5 mm, 5 μ) guard column (Agilent, Santa Clara, CA, United States). The injection volume was 5 μL and flow rate of 0.8 mL/min. Gradient elution was performed using a mobile phase of solvent A (water containing 0.05% v/v acetic acid) and solvent B (acetonitrile with 0.05% v/v acetic acid).
(§3) Briefly, two in-person study visits occurred a minimum of two weeks and a maximum of four weeks apart in which participants orally consumed 2 or 4 g of CAP (in a randomized order) on an empty stomach. Total study duration was eight weeks including follow-up adverse event monitoring. All study procedures were identical for each visit except for the CAP dose administered. Randomization (to prevent tolerance effects) was performed using an arm equivalence design by the OHSU Research Pharmacy. All study personnel were blind to randomization allocation until all data analysis had been finalized. […] Participants fasted for 10 h, excluding water, prior to each study visit and for 2 h after consuming the study intervention to standardize gastrointestinal transit time and minimize food effects. During study visits, participants were provided low-phytochemical snacks and meals by the OCTRI CTRC’s Bionutrition Unit devoid of the foods outlined in Section 2.5. At each study visit, a peripheral intravenous catheter was placed in the arm to allow for repeat blood sampling. Prior to CAP intake, 20 mL of baseline blood and 50 mL of baseline urine were collected. […] Plasma aliquots (2 mL) were frozen and stored at -80°C until analysis. […] A 50 mL aliquot was retained and frozen at −80°C for renal excretion analysis.
(§4) Sample preparation and analysis: Plasma and urine sample preparation and analyte quantification by LC-MS/MS were performed in duplicate for each time point and visit (Sections 2.2–2.4). Due to the possibility of residual interference from the participant’s diet and unique, individual matrix effects, calibration curves were generated for each participant using their baseline plasma collected at the corresponding visit.

[1] = Procedure: as §1, §2, §3, §4
[2] = human, 2 weeks
[3] = older adults on cholinesterase inhibitors, ref Wright et al., 2022, cited from earlier work
[4] = human, in vivo; cited from earlier work
[5] = in vivo; cited from earlier work
[6] = Analyte storage stability in human urine
[7] = Analyte storage stability in human plasma
[8] = condition 1 long-term storage at −80°C, low concentration
[9] = condition 2 freeze-thaw, medium concentration
[10] = condition 3 overnight storage at 4°C, low concentration
[11] = condition 2 three freeze-thaw cycles, low concentration
[12] = condition 3 4°C for 24 h, medium concentration
[13] = condition 1 long-term storage at -80°C, low concentration

In the case of C[C@H]1[C@H](C)CC[C@]2(C(=O)O)CC[C@]3(C)C(=CC[C@@H]4[C@@]5(C)C[C@@H](O)[C@H](O)[C@@](C)(CO)[C@@H]5CC[C@]43C)[C@H]12 [AA, asiatic acid], the T1/2 (clinical; in vivo) is reported as 4.9 (1.3) hr, the Tmax (clinical; in vivo) is reported as 2.8 (0.2) hr and the Cmax (clinical; in vivo, Cmax, range over both doses) is reported as 174 to 372 ng/mL. It also gave a half-life (clinical; in vivo, T1/2) of 4.1 h, a Tmax (clinical; in vivo, Tmax) of 2.2 h and a Tmax (clinical; in vivo, Tmax, range over both doses) of 2.2 to 2.8 h. The “Total urinary excretion (12 hr)” value ([1]; in vivo, po) was “Not detected”, the “Stability, percent of nominal concentration” value (“Stability, percent” for short) [2] was 111% and the Cmax ([3]; 2 g CAP) was 123 ng/mL. For the same molecule, the Cmax ([3]; 4 g CAP) was 259 ng/mL, the Tmax [4] was 1.5 h and the Tmax [5] was 4 to 4.5 h.
In the case of O=C(O)/C=C/c1ccc(O)c(O)c1 [CA, caffeic acid], the “AUC(0-12)” value (clinical; in vivo) is reported as 2.4 (0.6) ng/mL*hr, the T1/2 (clinical; in vivo) is reported as 10.3 (3.7) hr and the Tmax (clinical; in vivo) is reported as 4.5 (1.6) hr. For the same molecule, the AUC(0-t) (clinical; in vivo) was 1.8 ng·h/mL, the Cmax (clinical; in vivo, Cmax) was 0.5 ng/mL and the half-life (clinical; in vivo, T1/2) was 8.4 h. The Tmax (clinical; in vivo, Tmax) was 5.3 h, the “Stability, percent” value [6, 8] was 211% and the “Stability, percent” value [6, 9] was 129%. For the same molecule, the “Stability, percent” value [6, 10] was 224%, the “Stability, percent” value ([6]; condition 3 overnight storage at 4°C, medium concentration) was 86% and the “Stability, percent” value [7, 11] was 108%. For the same molecule, the “Stability, percent” value ([7]; condition 3 4°C for 24 h, low concentration) was 63% and the “Stability, percent” value [7, 12] was 75%.
O=C(O)CCc1ccc(O)c(O)c1 [DHCA, Dihydrocaffeic acid] showed an AUC(0-t) (clinical; plasma, 2 g, single oral 2 g CAW (CAP), n = 7, mean (SEM)) of 1.7 ng·h/mL, a Cmax (clinical; plasma, 2 g, Cmax, single oral 2 g CAW (CAP), healthy older adults, n = 7, plasma, mean (SEM), ^ = below LLoQ) of 0.4 ng/mL and a half-life (clinical; plasma, 2 g, T1/2, single oral 2 g CAW (CAP), n = 7, mean (SEM)) of 1.8 h. It also gave a Tmax (clinical; plasma, 2 g, Tmax, single oral 2 g CAW (CAP), n = 7, mean (SEM)) of 6.1 h, an AUC(0-t) (clinical; plasma, 4 g, single oral 4 g CAW (CAP), n = 7, mean (SEM)) of 1.9 ng·h/mL and a Cmax (clinical; plasma, 4 g, Cmax, single oral 4 g CAW (CAP), healthy older adults, n = 7, plasma, mean (SEM), ^ = below LLoQ) of 0.5 ng/mL. For the same molecule, the half-life (clinical; plasma, 4 g, T1/2, single oral 4 g CAW (CAP), n = 7, mean (SEM)) was 1.9 h, the Tmax (clinical; plasma, 4 g, Tmax, single oral 4 g CAW (CAP), n = 7, mean (SEM)) was 3.2 h and the “Total urinary excretion (12 hr)” value ([1]; single oral 2 g CAW (CAP), n = 7, mean (SEM)) was 26.8 (10.0) µg. The “Total urinary excretion (12 hr)” value ([1]; single oral 4 g CAW (CAP), n = 7, mean (SEM)) was 24.8 (6.1) µg, the “Stability, percent” value [6, 8] was 70% and the “Stability, percent” value [6, 10] was 106%. For the same molecule, the “Stability, percent” value [7, 13] was 75%, the “Stability, percent” value ([7]; condition 1 long-term storage at -80°C, medium concentration) was 75% and the “Stability, percent” value ([7]; condition 2 three freeze-thaw cycles, high concentration) was 75%. For the same molecule, the “Stability, percent” value ([7]; condition 2 three freeze-thaw cycles, medium concentration) was 51% and the “Stability, percent” value [7, 12] was 23%.
For COc1cc(CCC(=O)O)ccc1O [DHFA, Dihydroferulic acid], the “AUC(0-12)” value (clinical; in vivo) was 41.0 (12.7) ng/mL*hr, the Cmax (clinical; in vivo) was 8.1 (2.9) ng/mL and the T1/2 (clinical; in vivo) was 6.6 (3.8) hr. The Tmax (clinical; in vivo) was 5.7 (1.5) hr, the AUC(0-t) (clinical; in vivo) was 35.6 ng·h/mL and the Cmax (clinical; in vivo, Cmax) was 9.3 ng/mL. The half-life (clinical; in vivo, T1/2) was 7.1 h, the Tmax (clinical; in vivo, Tmax) was 5.9 h and the “Stability, percent” value [6, 8] was 79%. For the same molecule, the “Stability, percent” value ([6]; condition 1 long-term storage at −80°C, medium concentration) was 67%, the “Stability, percent” value [6, 9] was 84% and the “Stability, percent” value [7, 13] was 81%. The “Stability, percent” value [7, 11] was 97%.
